Our source for the Normal melting temperature values is the NIST ThermoML archive (doi:10.1016/j.jct.2015.02.002).

Numbers after ± are expanded uncertainties.

For this series the following is noted: Crystal; visual observation.

For `O=C(O)CC(O)C(=O)O` (stereo unspecified) [hydroxybutanedioic acid], the Normal melting temperature stood at 130.00 ± 0.5 °C.
